Assay results reported in the supplement of paper PMC10307832.

What was measured:
Test in all cases: relative viability (nuclei count vs DMSO), 5 days (fraction); higher = more cells survive
201T = tested on: 201T
Procedure, shortened: (§1)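 Five library-drug doses in √10 steps were combined with a fixed anchor-drug dose, or a single drug was given alone, by pin tool to lung cancer cell lines in 1536-well plates the day after seeding. Nuclei were stained and counted after 5 days. Relative viability is the nuclei count in treated wells over that in vehicle wells, taken as the median of duplicate plates.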

BEN = tested on: BEN
Procedure, shortened: as §1

COR-L 105 = tested on: COR-L 105
Procedure, shortened: as §1

EKVX = tested on: EKVX
Procedure, shortened: as §1

EPLC-272H = tested on: EPLC-272H
Procedure, shortened: as §1

H3255 = tested on: H3255
Procedure, shortened: as §1

HCC-44 = tested on: HCC-44
Procedure, shortened: as §1

HCC-827 = tested on: HCC-827
Procedure, shortened: as §1

LCLC-97TM1 = tested on: LCLC-97TM1
Procedure, shortened: as §1

LOU-NH91 = tested on: LOU-NH91
Procedure, shortened: as §1

LU99A = tested on: LU99A
Procedure, shortened: as §1

NCI-H1437 = tested on: NCI-H1437
Procedure, shortened: as §1

NCI-H1666 = tested on: NCI-H1666
Procedure, shortened: as §1

NCI-H1975 = tested on: NCI-H1975
Procedure, shortened: as §1

NCI-H2085 = tested on: NCI-H2085
Procedure, shortened: as §1

NCI-H2087 = tested on: NCI-H2087
Procedure, shortened: as §1

NCI-H2170 = tested on: NCI-H2170
Procedure, shortened: as §1

NCI-H2342 = tested on: NCI-H2342
Procedure, shortened: as §1

NCI-H647 = tested on: NCI-H647
Procedure, shortened: as §1

NCI-H650 = tested on: NCI-H650
Procedure, shortened: as §1

PC-3 [JPC-3] = tested on: PC-3 [JPC-3]
Procedure, shortened: as §1

SW 1573 = tested on: SW 1573
Procedure, shortened: as §1

`Cc1sc2c(c1C)C(c1ccc(Cl)cc1)=N[C@@H](CC(=O)OC(C)(C)C)c1nnc(C)n1-2` [JQ1] + COc1cccc2cc(-c3nc([C@H]4CC[C@H](C(=O)O)CC4)n4ncnc(N)c34)[nH]c12 [OSI-027] (partner 0.5 µM) showed a relative viability (201T; first compound 0.04 µM) of 0.761, a relative viability (201T; first compound 0.1265 µM) of 0.596 and a relative viability (201T; first compound 0.4 µM) of 0.688. For the same molecule, the relative viability (201T; first compound 1.265 µM) was 0.238, the relative viability (201T; first compound 4 µM) was 0.201 and the relative viability (BEN; first compound 0.04 µM) was 0.282. For the same molecule, the relative viability (BEN; first compound 0.1265 µM) was 0.286, the relative viability (BEN; first compound 0.4 µM) was 0.335 and the relative viability (BEN; first compound 1.265 µM) was 0.252. It also gave a relative viability (BEN; first compound 4 µM) of 0.2, a relative viability (COR-L 105; first compound 0.04 µM) of 0.608 and a relative viability (COR-L 105; first compound 0.1265 µM) of 0.336. It also gave a relative viability (COR-L 105; first compound 0.4 µM) of 0.297, a relative viability (COR-L 105; first compound 1.265 µM) of 0.207 and a relative viability (COR-L 105; first compound 4 µM) of 0.248. It also gave a relative viability (EKVX; first compound 0.04 µM) of 0.698, a relative viability (EKVX; first compound 0.1265 µM) of 0.587 and a relative viability (EKVX; first compound 0.4 µM) of 0.722. It also gave a relative viability (EKVX; first compound 1.265 µM) of 0.571, a relative viability (EKVX; first compound 4 µM) of 0.488 and a relative viability (EPLC-272H; first compound 0.04 µM) of 0.26. The relative viability (EPLC-272H; first compound 0.1265 µM) was 0.336, the relative viability (EPLC-272H; first compound 0.4 µM) was 0.275 and the relative viability (EPLC-272H; first compound 1.265 µM) was 0.237. It also gave a relative viability (EPLC-272H; first compound 4 µM) of 0.248, a relative viability (H3255; first compound 0.04 µM) of 0.532 and a relative viability (H3255; first compound 0.1265 µM) of 0.672. For the same molecule, the relative viability (H3255; first compound 0.4 µM) was 0.629, the relative viability (H3255; first compound 1.265 µM) was 0.438 and the relative viability (H3255; first compound 4 µM) was 0.444. The relative viability (HCC-44; first compound 0.04 µM) was 0.477, the relative viability (HCC-44; first compound 0.1265 µM) was 0.293 and the relative viability (HCC-44; first compound 0.4 µM) was 0.484. For the same molecule, the relative viability (HCC-44; first compound 1.265 µM) was 0.288, the relative viability (HCC-44; first compound 4 µM) was 0.214 and the relative viability (HCC-827; first compound 0.04 µM) was 0.704. The relative viability (HCC-827; first compound 0.4 µM) was 0.532, the relative viability (HCC-827; first compound 1.265 µM) was 0.866 and the relative viability (HCC-827; first compound 4 µM) was 0.738. The relative viability (LCLC-97TM1; first compound 0.04 µM) was 0.476, the relative viability (LCLC-97TM1; first compound 0.1265 µM) was 0.674 and the relative viability (LCLC-97TM1; first compound 0.4 µM) was 0.594. For the same molecule, the relative viability (LCLC-97TM1; first compound 1.265 µM) was 0.4, the relative viability (LCLC-97TM1; first compound 4 µM) was 0.199 and the relative viability (LOU-NH91; first compound 0.04 µM) was 0.721. For the same molecule, the relative viability (LOU-NH91; first compound 0.1265 µM) was 0.674, the relative viability (LOU-NH91; first compound 0.4 µM) was 0.564 and the relative viability (LOU-NH91; first compound 1.265 µM) was 0.537. For the same molecule, the relative viability (LOU-NH91; first compound 4 µM) was 0.431, the relative viability (LU99A; first compound 0.04 µM) was 0.299 and the relative viability (LU99A; first compound 0.1265 µM) was 0.268. It also gave a relative viability (LU99A; first compound 0.4 µM) of 0.316, a relative viability (LU99A; first compound 1.265 µM) of 0.234 and a relative viability (LU99A; first compound 4 µM) of 0.209. For the same molecule, the relative viability (NCI-H1437; first compound 0.04 µM) was 0.871, the relative viability (NCI-H1437; first compound 0.1265 µM) was 0.809 and the relative viability (NCI-H1437; first compound 0.4 µM) was 0.599. It also gave a relative viability (NCI-H1437; first compound 1.265 µM) of 0.36, a relative viability (NCI-H1437; first compound 4 µM) of 0.319 and a relative viability (NCI-H1666; first compound 0.04 µM) of 0.761. The relative viability (NCI-H1666; first compound 0.1265 µM) was 0.901, the relative viability (NCI-H1666; first compound 0.4 µM) was 0.726 and the relative viability (NCI-H1666; first compound 1.265 µM) was 0.581. For the same molecule, the relative viability (NCI-H1666; first compound 4 µM) was 0.789, the relative viability (NCI-H1975; first compound 0.04 µM) was 0.708 and the relative viability (NCI-H1975; first compound 0.1265 µM) was 0.527. For the same molecule, the relative viability (NCI-H1975; first compound 0.4 µM) was 0.62, the relative viability (NCI-H1975; first compound 1.265 µM) was 0.437 and the relative viability (NCI-H1975; first compound 4 µM) was 0.393. It also gave a relative viability (NCI-H2085; first compound 0.04 µM) of 0.763, a relative viability (NCI-H2085; first compound 0.1265 µM) of 0.519 and a relative viability (NCI-H2085; first compound 0.4 µM) of 0.574. It also gave a relative viability (NCI-H2085; first compound 1.265 µM) of 0.368, a relative viability (NCI-H2085; first compound 4 µM) of 0.323 and a relative viability (NCI-H2087; first compound 0.04 µM) of 0.586. The relative viability (NCI-H2087; first compound 0.1265 µM) was 0.643, the relative viability (NCI-H2087; first compound 0.4 µM) was 0.699 and the relative viability (NCI-H2087; first compound 1.265 µM) was 0.302. For the same molecule, the relative viability (NCI-H2087; first compound 4 µM) was 0.301, the relative viability (NCI-H2170; first compound 0.04 µM) was 0.683 and the relative viability (NCI-H2170; first compound 0.1265 µM) was 0.623. The relative viability (NCI-H2170; first compound 0.4 µM) was 0.688, the relative viability (NCI-H2170; first compound 1.265 µM) was 0.422 and the relative viability (NCI-H2170; first compound 4 µM) was 0.362. It also gave a relative viability (NCI-H2342; first compound 0.04 µM) of 0.695, a relative viability (NCI-H2342; first compound 0.1265 µM) of 0.605 and a relative viability (NCI-H2342; first compound 0.4 µM) of 0.702. It also gave a relative viability (NCI-H2342; first compound 1.265 µM) of 0.681, a relative viability (NCI-H2342; first compound 4 µM) of 0.52 and a relative viability (NCI-H647; first compound 0.04 µM) of 0.567. For the same molecule, the relative viability (NCI-H647; first compound 0.1265 µM) was 0.469, the relative viability (NCI-H647; first compound 0.4 µM) was 0.388 and the relative viability (NCI-H647; first compound 1.265 µM) was 0.293. For the same molecule, the relative viability (NCI-H647; first compound 4 µM) was 0.174, the relative viability (NCI-H650; first compound 0.04 µM) was 0.584 and the relative viability (NCI-H650; first compound 0.1265 µM) was 0.41. For the same molecule, the relative viability (NCI-H650; first compound 0.4 µM) was 0.415, the relative viability (NCI-H650; first compound 1.265 µM) was 0.25 and the relative viability (NCI-H650; first compound 4 µM) was 0.192. For the same molecule, the relative viability (PC-3 [JPC-3]; first compound 0.04 µM) was 0.771, the relative viability (PC-3 [JPC-3]; first compound 0.1265 µM) was 0.823 and the relative viability (PC-3 [JPC-3]; first compound 0.4 µM) was 0.739. For the same molecule, the relative viability (PC-3 [JPC-3]; first compound 1.265 µM) was 0.653, the relative viability (PC-3 [JPC-3]; first compound 4 µM) was 0.445 and the relative viability (SW 1573; first compound 0.04 µM) was 0.511. For the same molecule, the relative viability (SW 1573; first compound 0.1265 µM) was 0.475, the relative viability (SW 1573; first compound 0.4 µM) was 0.371 and the relative viability (SW 1573; first compound 1.265 µM) was 0.229. For the same molecule, the relative viability (SW 1573; first compound 4 µM) was 0.233.
